Converted amounts (≈) assume the structure as drawn. Where two headings read alike, the source gives them in different places.
Experiments:
V79 fibroblast cultures = test: IC50 in vitro by cell viability measurement; type: cell-based
Source text: IC50 values were obtained by measuring cell viability in V79 fibroblast cultures as an alternative to animal experimentation. The values determined are summarized in the following table: Table 2: IC50 determination

[1] = target: T1, Bovine Serum Albumin (BSA) (Bos taurus, UniProt P02769); details: 5 h, 0.25 mM, pH 7.4
Description: (§1) The albumin affinity test was carried out by in-vitro studies using Thermo Scientific™ "Single-Use RED Plate with 8K MWCO Inserts" 96-well plate, Bovine Serum Albumin (BSA) and HEPES. The technique of the devices is based on the process of equilibrium dialysis. The tests were carried out in a HEPES buffer with a pH of 7.4. In a typical test, following the manufacturer's measurement procedure, 400 µL of a solution containing the compound to be studied and BSA in concentrations of 0.25 mM and 0.6 mM respectively, in HEPES buffer, are added to the sample well. Additionally, 600 µL of HEPES buffer is added in the buffer well. After shaking the system for five hours at 300 rpm at a constant temperature of 37 °C, the concentration of the compound in each well is analysed. This analysis was performed using an Agilent ICP-MS (7900 Series) and with these concentration data the percentage of affinity of the studied compounds was determined.

[2] = Osmolality test with freezing point equipment; type: physicochemical; details: solutions at a concentration of 0.1 M
[3] = target: T1, Bovine Serum Albumin (BSA); test: Albumin affinity test by equilibrium dialysis (RED plate), ICP-MS analysis; details: compound 0.25 mM, BSA 0.6 mM, HEPES buffer pH 7.4, five hours, 37 °C
Description: as §1

mice [4] = test: MRI imaging in a 7T animal magnetic resonance equipment; type: in vivo
Description: The test was carried out in a 7T animal magnetic resonance equipment by administering the contrast medium containing the compound (8) at a dose of 0.1 mmol/Kg to mice.

mice [5] = test: PET/CT imaging in an animal PET/CT scanner; type: in vivo; details: 130 µCi solution, gallium 68-labelled compound, Figure 7

T1 sequence (P02769 25-607): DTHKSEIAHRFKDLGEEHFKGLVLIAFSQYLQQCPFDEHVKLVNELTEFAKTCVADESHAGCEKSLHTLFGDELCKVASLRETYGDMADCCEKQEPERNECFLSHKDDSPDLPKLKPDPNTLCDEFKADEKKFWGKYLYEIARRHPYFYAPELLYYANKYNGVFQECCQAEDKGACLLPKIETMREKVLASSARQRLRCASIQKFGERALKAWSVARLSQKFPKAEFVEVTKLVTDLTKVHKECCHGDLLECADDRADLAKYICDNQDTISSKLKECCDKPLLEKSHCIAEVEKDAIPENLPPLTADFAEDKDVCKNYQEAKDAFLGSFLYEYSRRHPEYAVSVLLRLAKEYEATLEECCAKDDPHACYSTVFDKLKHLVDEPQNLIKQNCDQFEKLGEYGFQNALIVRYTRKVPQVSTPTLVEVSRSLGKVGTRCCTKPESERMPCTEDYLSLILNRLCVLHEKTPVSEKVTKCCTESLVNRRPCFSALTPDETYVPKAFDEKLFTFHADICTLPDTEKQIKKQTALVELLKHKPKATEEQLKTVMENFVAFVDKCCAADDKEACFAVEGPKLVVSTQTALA

| Compound | Osmolality (mOs/Kg) [2] [mOs/Kg] | IC50 (V79 fibroblast cultures) [mg/mL] | other results |
| --- | --- | --- | --- |
| Gadolinium {10-{2-{2-[2-(3-Carboxy-2,4,6-triiodophenylamino)-2-oxoethylamino] aminoethyl}-2-oxoethyl}-1,4,7,10-tetraaza-1-cyclodododecyl}-1,4,7-triacetate [Compound (15)] | 155.38 | >75 | – |
| Europium {10-{2-{2-[2-(3-Carboxy-2,4,6-triiodophenylamino)-2-oxoethylamino] aminoethyl}-2-oxoethyl}-1,4,7,10-tetraaza-1-cyclodododecyl}-1,4,7-triacetate [Compound (16)] | 148.12 | >75 | – |
| Gadolinium {10-{2-[2-(3-acetylamino-2,4,6-triiodophenylamino) aminoethyl]-2-oxoethyl}-1,4,7,10-tetraaza-1-cyclodecyl}-1,4,7-triacetate [Compound (8)] | 117.58 | >75 | visualisation of the liver in MRI (mice [4]; additional study, MRI signal, figures 5 and 6): visualisation of the liver is possible; elimination route of the contrast medium (MRI) (mice [4]; mice, dose of 0.1 mmol/Kg, 7T MRI, figures 3 and 4): elimination via the kidneys |
| Gallium {10-{2-{2-[2-(3-Carboxy-2,4,6-triiodophenylamino)-2-oxoethylamino] aminoethyl}-2-oxoethyl}-1,4,7,10-tetraaza-1-cyclodododecyl}-1,4,7-triacetate [Compound (14)] | 150.42 | 10.12 | – |
| Gallium {10-{2-[2-(3-acetylamino-2,4,6-triiodophenylamino) aminoethyl]-2-oxoethyl}-1,4,7,10-tetraaza-1-cyclodecyl}-1,4,7-triacetate [Compound (7)] | 123.43 | 8.64 | organs differentiated in PET/CT images (mice [5]): heart, liver, kidneys and bladder are differentiated |

Second part, led by results:

| Osmolality (mOs/Kg) [2] [mOs/Kg] | Compound | IC50 (V79 fibroblast cultures) [mg/mL] | other results |
| --- | --- | --- | --- |
| 258.47 | CC(=O)Nc1c(I)cc(I)c(C(=O)O)c1I [Acetrizoic acid, reference compound] | – | IC50 (V79 fibroblast cultures; read-out: IC50): 4.04 mg/mL (≈ 7.25 mM); Albumin affinity (%) [1]: 39.16% |
| 125.12 | Europium {10-{2-[2-(3-acetylamino-2,4,6-triiodophenylamino) aminoethyl]-2-oxoethyl}-1,4,7,10-tetraaza-1-cyclodecyl}-1,4,7-trioacetate [Compound (9)] | >75 | – |
| 93.33 | O=C([O-])CN1CCN(CC(=O)[O-])CCN([C@H](CO)[C@H](O)CO)CCN(CC(=O)[O-])CC1.[Gd+3] (racemic) [Gadobutrol, reference compound] | >75 | Albumin affinity (%) [3]: Not detectable |

— patent publication EP4015509A1, “ORGANOMETALLIC COMPOUNDS AND THEIR USE AS MULTIMODAL CONTRASTING MEDIA FOR IMAGING DIAGNOSIS” (Justesa Imagen S.A.U, priority 2020, dated 2022)
